Data from patent US7138231B2 (priority 2000, dated 2006).
“Also recorded” adds a separate entry of the source. Like-named read-outs stand apart in the source and are kept apart here.

Tests used:
[1] = test system: HIV-1 patient-derived protease and reverse transcriptase segments (N88S in PR) in resistance test vectors; assay: Phenotypic drug susceptibility test with resistance test vectors from patient samples; type: cell-based; conditions: for Fold Change vs. reference: N88S
[2] = test system: HIV-1 patient viruses with protease L90M; assay: Phenotypic susceptibility profiles of 58 patient virus samples with L90M, no other primary mutations; type: cell-based; conditions: {}
[3] = test system: HIV-1 patient viruses with protease L90M; assay: Phenotypic susceptibility profiles of 333 patient virus samples with L90M (not 30 or 50); type: cell-based
HIV-1 = conditions: cited from earlier work
HIV-2 = conditions: cited from earlier work
[4] = test system: HIV-1 variants with protease substitutions; conditions: cited from earlier work
[5] = target: HIV-1 protease mutants (I50V, M46I/I47V/I50V, L10F, M46I, I47V) (Human immunodeficiency virus type 1 group M subtype B, UniProt P04585, I535V/I538V/M534I); conditions: triple mutant M46I/I47V/I50V; cited from earlier work
[6] = target: HIV-1 protease mutants (I50V, M46I/I47V/I50V, L10F, M46I, I47V) (Human immunodeficiency virus type 1 group M subtype B, UniProt P04585, I538V); conditions: I50V single-mutant protease; cited from earlier work
[7] = test system: HIV-1 protease mutants (I50V, M46I/I47V/I50V, L10F, M46I, I47V); conditions: single mutants L10F, M46I, and I47V; cited from earlier work
[8] = test system: HIV-1 protease site-directed mutants (N88S, L63P, V77I, M46L) in resistance test vector; assay: Phenotypic susceptibility assay of resistance test vectors with site-directed mutations in PR
Text: The resistance test vectors containing a functional luciferase gene cassette were constructed and host cells were transfected with the resistance test vector DNA. […] The resistance test vector viral particles produced by transfecting the resistance test vector DNA into host cells, either in the presence or absence of protease inhibitors, were used to infect target host cells grown either in the absence of NRTI or NNRTI or in the presence of increasing concentrations of the drug. Luciferase activity in infected target host cells in the presence of drug was compared to the luciferase activity in infected target host cells in the absence of drug. […] The IC50 values were determined by plotting percent drug inhibition vs. log10 drug concentration.
Host cells were seeded in 10-cm-diameter dishes and were transfected one day after plating with resistance test vector plasmid DNA and the envelope expression vector. Transfections were performed using a calcium-phosphate co-precipitation procedure. The cell culture media containing the DNA precipitate was replaced with fresh medium, from one to 24 hours, after transfection. Cell culture media containing resistance test vector viral particles was harvested one to four days after transfection and was passed through a 0.45-mm filter before being stored at −80° C. HIV capsid protein (p24) levels in the harvested cell culture media were determined by an EIA method as described by the manufacturer (SIAC; Frederick, Md.). Before infection, target cells (293 and 293/T) were plated in cell culture media. Control infections were performed using cell culture media from mock transfections (no DNA) or transfections containing the resistance test vector plasmid DNA without the envelope expression plasmid. One to three or more days after infection the media was removed and cell lysis buffer (Promega) was added to each well. Cell lysates were assayed for luciferase activity. The inhibitory effect of the drug was determined using the following equation: % luciferase inhibition=[1−(RLUluc[drug]RLUluc)]×100 where RLUluc [drug] is the relative light unit of luciferase activity in infected cells in the presence of drug and RLUluc is the Relative Light Unit of luciferase activity in infected cells in the absence of drug. IC50 values were obtained from the sigmoidal curves that were generated from the data by plotting the percent inhibition of luciferase activity vs. the log10 drug concentration.
Mutations are introduced into the resistance test vector through any of the widely known methods for site-directed mutagenesis. […] A resistance test vector containing the specific mutation or group of mutations are then tested using the phenotypic susceptibility assay described above and the susceptibility profile is compared to that of a genetically defined wild-type (drug susceptible) resistance test vector which lacks the specific mutations.
Resistance test vectors were constructed containing the N88S mutation alone and in combination with other substitutions in PR (L63P, V77I and M46L) known to modulate the HIV susceptibility to PRIs. Mutations were introduced into the resistance test vector using the mega-primer PCR method for site-directed mutagenesis.

CC(C)CN(C[C@@H](O)[C@H](Cc1ccccc1)NC(=O)O[C@H]1CCOC1)S(=O)(=O)c1ccc(N)cc1 [amprenavir]
Fold Change vs. reference ([1]; patient sample 360, prior PRI IDV, PR I13V, K20M, M36V, N37A, M46I, I62V, L63P, I93L): 0.15 fold | Fold Change vs. reference ([1]; patient sample 627, prior PRI IDV, PR I13I/V, E35D, M46L, L63P, I64V, I73V): 0.09 fold | Fold Change vs. reference ([1]; patient sample 0732, prior PRI NFV, PR K14R, I15V, K20T, E35D, M36I, R41K, I62V, L63Q): 0.08 fold | Fold Change vs. reference ([1]; patient sample 0910, prior PRI NFV, PR M46I, L63P, V77I, I93I/L): 0.16 fold | Fold Change vs. reference ([1]; patient sample 1208, prior PRI NFV, PR I62V, L63P, V77I): 0.10 fold | Fold Change vs. reference ([1]; patient sample 3542, prior PRI IDV, PR I13V, K14R, N37D, M46I, L63P, I93L): 0.16 fold | Fold Change vs. reference ([1]; patient sample 3654, PR I13V, R41K, M46I, L63P, V77I, I93L): 0.20 fold | change in susceptibility ([1]; patient sample RTV-360): increase | change in susceptibility ([1]; patient sample RTV-627): increase | change in susceptibility ([1]; patient sample RTV-0732): increase; also recorded: increased susceptibility | change in susceptibility ([1]; patient sample RTV-0910): increase | change in susceptibility ([1]; patient sample RTV-1208): increase | change in susceptibility ([1]; patient sample RTV-3542): increase | change in susceptibility ([1]; patient sample RTV-3654): increase | Percent of viruses with indicated primary mutation(s) which are drug sensitive (fold change in IC50 < 2.5) [2]: 65.5% | wt % > 2.5 ([3]; Amprenavir FC>2.5, L90M, position 10 wild type): 30.8% | wt % > 2.5 ([3]; Amprenavir FC>2.5, L90M, position 15 wild type): 63.6% | wt % > 2.5 ([3]; Amprenavir FC>2.5, L90M, position 33 wild type): 57.4% | wt % > 2.5 ([3]; Amprenavir FC>2.5, L90M, position 36 wild type): 55.3% | wt % > 2.5 ([3]; Amprenavir FC>2.5, L90M, position 46 wild type): 46.2% | wt % > 2.5 ([3]; Amprenavir FC>2.5, L90M, position 53 wild type): 57.6% | wt % > 2.5 ([3]; Amprenavir FC>2.5, L90M, position 54 wild type): 47.5% | wt % > 2.5 ([3]; Amprenavir FC>2.5, L90M, position 58 wild type): 58.7% | wt % > 2.5 ([3]; Amprenavir FC>2.5, L90M, position 62 wild type): 55.3% | wt % > 2.5 ([3]; Amprenavir FC>2.5, L90M, position 74 wild type): 62.5% | wt % > 2.5 ([3]; Amprenavir FC>2.5, L90M, position 82 wild type): 53.5% | wt % > 2.5 ([3]; Amprenavir FC>2.5, L90M, position 84 wild type): 48.5% | wt % > 2.5 ([3]; Amprenavir FC>2.5, L90M, position 89 wild type): 59.3% | wt % > 2.5 ([3]; Amprenavir FC>2.5, L90M, position 92 wild type): 58.6% | wt % > 2.5 ([3]; Amprenavir FC>2.5, L90M, position 95 wild type): 58.7% | mt % > 2.5 ([3]; Amprenavir FC>2.5, listed as 90: all samples with L90M): 60.4% | wt % > 10 ([3]; Amprenavir FC>10, L90M, position 10 wild type): 2.6% | wt % > 10 ([3]; Amprenavir FC>10, L90M, position 13 wild type): 10.9% | wt % > 10 ([3]; Amprenavir FC>10, L90M, position 32 wild type): 11.7% | wt % > 10 ([3]; Amprenavir FC>10, L90M, position 33 wild type): 8.4% | wt % > 10 ([3]; Amprenavir FC>10, L90M, position 46 wild type): 8.3% | wt % > 10 ([3]; Amprenavir FC>10, L90M, position 47 wild type): 11.9% | wt % > 10 ([3]; Amprenavir FC>10, L90M, position 53 wild type): 11.5% | wt % > 10 ([3]; Amprenavir FC>10, L90M, position 54 wild type): 5.9% | wt % > 10 ([3]; Amprenavir FC>10, L90M, position 55 wild type): 11.6% | wt % > 10 ([3]; Amprenavir FC>10, L90M, position 66 wild type): 11.9% | wt % > 10 ([3]; Amprenavir FC>10, L90M, position 69 wild type): 14.2% | wt % > 10 ([3]; Amprenavir FC>10, L90M, position 84 wild type): 8.7% | % > 10 ([3]; Amprenavir FC>10, listed as 90: all samples with L90M): 12.9% | Percent of viruses with indicated primary mutation(s) with reduced susceptibility (fold change in IC50 > 2.5) ([3]; L90M): 60.4% | Percent of viruses with indicated primary mutation(s) with reduced susceptibility (fold change in IC50 > 10) ([3]; L90M): 12.9% | IC50 (HIV-1; read-out: IC50): 80 nM | IC50 (HIV-1; read-out: mean IC50): 12 nM | IC50 (HIV-2): 340 nM | decrease in susceptibility ([4]; I50V as a single mutation): two- to threefold | resistance of selected variants ([4]; in vitro passage, L10F, M46I, I47V, I50V): 100 fold | change in susceptibility ([4]; other substitutions as single mutations in HXB2): did not result in reduced susceptibility | fold less susceptible than wild-type virus ([4]; triple mutant clone M46I, I47V, I50V): 20 fold | fold-reduced Kl compared to wild-type enzyme [5]: 270 fold | fold reduction in the inhibition constant (Kl) compared to wild-type enzyme [6]: 80 fold | affinity [7]: did not display reduced affinity | change in susceptibility compared to wild type control RTV ([8]; L63P-N88S-RTV): increase in the susceptibility | change in susceptibility compared to wild type control RTV ([8]; L63P-V77I-N88S-RTV): increase in the susceptibility; also recorded: increased susceptibility | change in susceptibility compared to wild type control RTV ([8]; M46L-L63P-N88S-RTV): increase in the susceptibility | change in susceptibility compared to wild type control RTV ([8]; M46L-L63P-V77I-N88S-RTV): increase in the susceptibility | change in susceptibility compared to wild type control RTV ([8]; N88S-RTV): more susceptible | Fold Change vs. reference ([8]; site-directed mutation N88S): 0.04 fold | Fold Change vs. reference ([8]; site-directed mutations L63P): 1.06 fold | Fold Change vs. reference ([8]; site-directed mutations L63P, N88S): 0.11 fold | Fold Change vs. reference ([8]; site-directed mutations L63P, V77I): 0.91 fold | Fold Change vs. reference ([8]; site-directed mutations L63P, V77I, N88S): 0.08 fold | Fold Change vs. reference ([8]; site-directed mutations M46L, L63P, N88S): 0.12 fold | Fold Change vs. reference ([8]; site-directed mutations M46L, L63P, V77I, N88S): 0.14 fold
